Experimental data reported in patent US10508105B2, “Indazole compounds as mGluR4 allosteric potentiators, compositions, and methods of treating neurological dysfunction” (Vanderbilt University, priority 2017, dated 2019).

Target: human mGlu4 (Homo sapiens (Human), UniProt Q14833)
Assay: mGlu4 PAM assay in human mGlu4/Gqi5 cells with ~EC20 glutamate (Hamamatsu FDSS)
Format: cell-based
Details: ~EC20 concentration of glutamate, read-out: mGlu4 PAM EC50
Description: The disclosed compounds and compositions can be evaluated for their ability to act as a potentiatior of metabotropic glutamate receptor activity, in particular mGluR4 activity, by any suitable known methodology known in the art. For example, Chinese Hamster Ovary (CHO) cells transfected with human mGluR4 or HEK cells co-transfected with rat mGluR4 and the G-protein regulated Inwardly Rectifying Potassium channel (GIRK) were plated in clear bottom assay plates for assay in a Hamamatsu FDSS Fluorometric Plate Reader. The cells were loaded with either a Ca2+-sensitive fluorescent dye or the thallium responsive dye and the plates were washed and placed into a suitable kinetic plate reader. For human mGluR4 assays, a fluorescence baseline was established for 3-5 seconds, the disclosed compounds were then added to the cells, and the response in cells was measured. Approximately two and a half minutes later, a concentration of mGluR4 orthosteric agonist (e.g. glutamate, L-AP4, or L-SOP) eliciting approximately 20% (EC20) of the maximal agonist response was added to the cells, and the response was measured. Two minutes later, a concentration of mGluR4 agonist (e.g. glutamate, L-AP4, or L-SOP) eliciting 80% (EC80) of the maximal agonist response was added to the cells, and the response was measured. For rat mGluR4/GIRK experiments, a baseline was established for approximately five seconds, disclosed compounds were added, and either an EC20 or EC80 concentration of agonist was added approximately two and one half minutes later.
The above described assay operated in two modes. In the first mode, a range of concentrations of the disclosed compounds are added to cells, followed by a single fixed concentration of agonist. If the compound acts as a potentiatior, an EC50 value for potentiation and a maximum extent of potentiation by the compound at this concentration of agonist is determined by non-linear curve fitting. If the compound acts as an antagonist, an IC50 value is determined by non-linear curve fitting. In the second mode, several fixed concentrations of the disclosed compounds are added to various wells on a plate, followed by a range in concentrations of agonist for each concentration of disclosed compound. The EC50 values for the agonist at each concentration of compound are determined by non-linear curve fitting. A decrease in the EC50 value of the agonist with increasing concentrations of the sample compound (a leftward shift of the agonist concentration-response curve) is an indication of the degree of mGluR4 potentiation at a given concentration of the sample compound. A decrease in the maximal response of the agonist with increasing concentrations of the sample compounds, with or without a rightward shift in agonist potency, is an indication of the degree of antagonism at mGluR4. The second mode also indicates whether the sample compounds also affect the maximum response to mGluR4 to agonists.

human mGlu4, sequence (Q14833 33-912): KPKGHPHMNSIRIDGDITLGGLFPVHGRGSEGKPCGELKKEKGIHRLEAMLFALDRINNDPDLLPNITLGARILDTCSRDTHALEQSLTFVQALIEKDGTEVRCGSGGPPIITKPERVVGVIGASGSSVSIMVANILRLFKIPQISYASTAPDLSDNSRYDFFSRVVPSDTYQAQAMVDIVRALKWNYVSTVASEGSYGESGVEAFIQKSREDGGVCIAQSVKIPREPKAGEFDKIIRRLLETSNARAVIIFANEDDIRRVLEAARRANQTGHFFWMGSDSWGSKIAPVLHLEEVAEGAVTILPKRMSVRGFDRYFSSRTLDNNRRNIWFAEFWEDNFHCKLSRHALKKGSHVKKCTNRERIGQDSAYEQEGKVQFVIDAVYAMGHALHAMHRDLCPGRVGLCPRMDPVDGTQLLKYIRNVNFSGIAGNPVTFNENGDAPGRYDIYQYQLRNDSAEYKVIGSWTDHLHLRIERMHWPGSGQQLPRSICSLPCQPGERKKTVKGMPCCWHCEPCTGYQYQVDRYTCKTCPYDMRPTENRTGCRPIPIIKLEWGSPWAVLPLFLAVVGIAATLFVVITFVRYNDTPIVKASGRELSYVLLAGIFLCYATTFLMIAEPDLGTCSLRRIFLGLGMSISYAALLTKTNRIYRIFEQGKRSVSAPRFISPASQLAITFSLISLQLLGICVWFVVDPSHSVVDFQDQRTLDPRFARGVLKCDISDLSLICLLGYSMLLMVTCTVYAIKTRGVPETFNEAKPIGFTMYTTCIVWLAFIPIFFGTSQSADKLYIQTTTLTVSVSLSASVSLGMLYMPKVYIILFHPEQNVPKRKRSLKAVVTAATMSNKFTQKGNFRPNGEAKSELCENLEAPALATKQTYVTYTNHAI

Row | SMILES | EC50 [nM]
1 | Cn1nc(OCC2CCOCC2)c2ncc(Nc3n[nH]c4cccnc34)cc21 [Compound 61] | 209
2 | Cn1nc(OCCN2CCOCC2)c2ccc(Nc3n[nH]c4ncccc34)cc21 [Compound 66] | 398
3 | CC1CC(COc2nn(C)c3cc(NC(=O)c4ccccn4)ccc23)CC(C)O1 (centres unmarked) [Compound 107] | 45.1
4 | Cn1nc(OCC2CCOCC2)c2ccc(NC(=O)c3ccccn3)cc21 [Compound 116] | 63
5 | Cn1nc(OCC2CCOC2)c2ccc(Nc3n[nH]c4cccnc34)cc21 (centres unmarked) [Compound 49] | 30.5
6 | Cn1nc(OCCOc2ccc(F)cc2)c2ccc(Nc3n[nH]c4cccnc34)cc21 [Compound 18] | 852
7 | Cn1nc(OCC2CC2(F)F)c2ccc(Nc3n[nH]c4cccnc34)cc21 (centres unmarked) [Compound 31] | 112
8 | Cn1nc(OCC2CCOCC2)c2ccc(Nc3n[nH]c4ncccc34)cc21 [Compound 52] | 157
9 | Cn1nc(OCC2CCCOC2)c2ccc(NC(=O)c3ncccc3N)cc21 (centres unmarked) [Compound 86] | 182
10 | Cn1nc(OCc2ccccn2)c2ccc(Nc3n[nH]c4cccnc34)cc21 [Compound 17] | 462
11 | Cn1nc(OC2CCS(=O)(=O)C2)c2ccc(NC(=O)c3ncccc3N)cc21 (centres unmarked) [Compound 54] | 117
12 | Cn1nc(Oc2cccc(C#N)n2)c2ccc(Nc3n[nH]c4cccnc34)cc21 [Compound 16] | 111
13 | Cn1nc(OC[C@@H]2CCOC2)c2ncc(NC(=O)c3ncccc3N)cc21 [Compound 83] | 120
14 | Cn1nc(OC2CCS(=O)(=O)CC2)c2ccc(Nc3n[nH]c4ncccc34)cc21 [Compound 48] | 335
15 | Cn1nc(OC2CCOC[C@H]2F)c2ccc(NC(=O)c3ccccn3)cc21 (some centres unmarked) [Compound 70] | 84.7
16 | Cn1nc(OCC2CCOC(C)(C)C2)c2ccc(NC(=O)c3ncccc3N)cc21 (centres unmarked) [Compound 105] | 127
17 | Cc1ccc(C(=O)Nc2ccc3c(OCC4CCOC4)nn(C)c3c2)nc1 (centres unmarked) [Compound 90] | 574
18 | Cn1nc(OCC2COC2)c2ccc(Nc3n[nH]c4cccnc34)cc21 [Compound 27] | 96.4
19 | Cn1nc(OCC2CCOC2)c2ccc(NC(=O)c3cc(F)ccn3)cc21 (centres unmarked) [Compound 98] | 991
20 | Cn1nc(OC2CCS(=O)(=O)CC2)c2ccc(NC(=O)c3ccccn3)cc21 [Compound 39] | 417
21 | Cn1nc(OCC2CCOC2)c2ccc(Nc3n[nH]c4ncccc34)cc21 (centres unmarked) [Compound 50] | 135
22 | CC1CC(Oc2nn(C)c3cc(NC(=O)c4ncccc4N)ccc23)CCO1 (centres unmarked) [Compound 74] | 431
23 | Cn1nc(OCc2ccncc2)c2ccc(Nc3n[nH]c4cccnc34)cc21 [Compound 10] | 65.7
24 | CCCOc1nn(C)c2cc(Nc3n[nH]c4cccnc34)ccc12 [Compound 9] | 171
25 | CC1CC(Oc2nn(C)c3cc(NC(=O)c4ncccc4O)ccc23)CCO1 (centres unmarked) [Compound 75] | 431

Row | SMILES | EC50 [nM]
26 | Cn1nc(OCC2CCCOC2)c2ccc(Nc3n[nH]c4cccnc34)cc21 (centres unmarked) [Compound 88] | 63.8
27 | Cn1nc(O[C@H]2CCOC2)c2ccc(Nc3n[nH]c4cccnc34)cc21 [Compound 32] | 456
28 | Cn1nc(OCC2CCOC2)c2ncc(NC(=O)c3ncccc3N)cc21 (centres unmarked) [Compound 56] | 86.8
29 | Cn1nc(OCC2COC(C)(C)C2)c2ccc(NC(=O)c3ccccn3)cc21 (centres unmarked) [Compound 101] | 75.6
30 | Cn1nc(OCC2CCCOC2)c2ncc(NC(=O)c3ncccc3N)cc21 (centres unmarked) [Compound 89] | 181
31 | COCCOc1nn(C)c2cc(Nc3n[nH]c4cccnc34)ccc12 [Compound 23] | 380
32 | Cn1nc(OC2CCS(=O)(=O)CC2)c2ccc(Nc3n[nH]c4cccnc34)cc21 [Compound 29] | 214
33 | Cn1nc(OCC2CCOC2)c2ccc(NC(=O)c3cccc(F)n3)cc21 (centres unmarked) [Compound 95] | 211
34 | Cn1nc(OC[C@H]2COCCO2)c2ccc(NC(=O)c3ncccc3N)cc21 [Compound 94] | 58.7
35 | Cn1nc(OCCN2CCOCC2)c2ccc(NC(=O)c3ccccn3)cc21 [Compound 76] | 703
36 | Cn1nc(OCCOc2ccccc2F)c2ccc(Nc3n[nH]c4cccnc34)cc21 [Compound 19] | 483
37 | Cn1nc(OCC2CCOC2)c2ccc(NC(=O)c3ncccc3N)cc21 (centres unmarked) [Compound 115] | 75.4
38 | Cn1nc(OCC2CCCOC2)c2ccc(NC(=O)c3ncccc3O)cc21 (centres unmarked) [Compound 87] | 100
39 | Cn1nc(OCC2CCOCC2)c2ncc(Nc3n[nH]c4ncccc34)cc21 [Compound 62] | 353
40 | Cn1nc(OCC2CCOCC2)c2ccc(Nc3n[nH]c4cccnc34)cc21 [Compound 51] | 40.4
41 | Cn1nc(OC2CCOC[C@H]2F)c2ccc(NC(=O)c3ncccc3O)cc21 (some centres unmarked) [Compound 72] | 132
42 | Cn1nc(OCC2CCCCO2)c2ccc(Nc3n[nH]c4cccnc34)cc21 (centres unmarked) [Compound 14] | 85.6
43 | Cn1nc(OC2CCOC(C)(C)C2)c2ccc(NC(=O)c3ccccn3)cc21 (centres unmarked) [Compound 67] | 80.2
44 | Cn1nc(OC2CCS(=O)(=O)CC2)c2ccc(NC(=O)c3ncccc3N)cc21 [Compound 113] | 142
45 | Cn1nc(OCC2CCOC(C)(C)C2)c2ccc(NC(=O)c3ccccn3)cc21 (centres unmarked) [Compound 104] | 58.8
46 | Cn1nc(OCC2CCOC2)c2ccc(NC(=O)c3ncccc3O)cc21 (centres unmarked) [Compound 44] | 53
47 | Cn1nc(OCC2COCCO2)c2ccc(NC(=O)c3ncccc3N)cc21 (centres unmarked) [Compound 82] | 66.1
48 | Cn1nc(OCC2COC(C)(C)C2)c2ccc(NC(=O)c3ncccc3N)cc21 (centres unmarked) [Compound 102] | 109
49 | Cn1nc(OC2CCOC(C)(C)C2)c2ccc(NC(=O)c3ncccc3O)cc21 (centres unmarked) [Compound 69] | 117
50 | Cn1nc(OC2CCOC(C)(C)C2)c2ccc(Nc3n[nH]c4cccnc34)cc21 (centres unmarked) [Compound 63] | 169

Row | SMILES | EC50 [nM]
51 | Cn1nc(OC2CC3CCC2O3)c2ccc(Nc3n[nH]c4ncccc34)cc21 (centres unmarked) [Compound 38] | 601
52 | Cn1nc(OC2CCOC2)c2ccc(Nc3n[nH]c4cccnc34)cc21 (centres unmarked) [Compound 28] | 726
53 | Cn1nc(OC[C@H]2CCOC2)c2ccc(NC(=O)c3ncccc3N)cc21 [Compound 80] | 36.9
54 | Cn1nc(OCC2CCOC2)c2ccc(NC(=O)c3ccc(F)cn3)cc21 (centres unmarked) [Compound 91] | 49.6
55 | Cn1nc(OCC2CC2)c2ccc(Nc3n[nH]c4cccnc34)cc21 [Compound 5] | 164
56 | Cn1nc(OCC2CCOC2)c2ncc(NC(=O)c3ccccn3)cc21 (centres unmarked) [Compound 55] | 873
57 | Cn1nc(OC[C@@H]2COCCO2)c2ccc(NC(=O)c3ncccc3N)cc21 [Compound 93] | 30.5
58 | Cn1nc(OCCN2CCOCC2)c2ccc(NC(=O)c3ncccc3N)cc21 [Compound 77] | 133
59 | Cc1cc(COc2nn(C)c3cc(Nc4n[nH]c5cccnc45)ccc23)no1 [Compound 12] | 203
60 | CC1CC(COc2nn(C)c3cc(NC(=O)c4ccc(F)cn4)ccc23)CC(C)O1 (centres unmarked) [Compound 109] | 83.6
61 | Cn1nc(Oc2ccc(C#N)cn2)c2ccc(Nc3n[nH]c4cccnc34)cc21 [Compound 11] | 157
62 | Cn1nc(OCC2CCOC2)c2ccc(NC(=O)c3ccccn3)cc21 (centres unmarked) [Compound 114] | 81.2
63 | CC1CC(Oc2nn(C)c3cc(Nc4n[nH]c5cccnc45)ccc23)CCO1 (centres unmarked) [Compound 65] | 134
64 | Cn1nc(OC[C@H]2COCCO2)c2ccc(NC(=O)c3ccccn3)cc21 [Compound 81] | 205
65 | Cn1nc(OC[C@@H]2CCOC2)c2ccc(NC(=O)c3ncccc3N)cc21 [Compound 79] | 27.3
66 | Cn1nc(OC[C@@H]2COCCO2)c2ccc(NC(=O)c3ncccc3N)cc21 [Compound 130] | 24.6
67 | Cn1nc(OCC2CCOC2)c2ccc(NC(=O)c3ncc(F)cc3F)cc21 (centres unmarked) [Compound 100] | 801
68 | Cn1nc(OCC2CCOC(C)(C)C2)c2ccc(NC(=O)c3ccc(F)cn3)cc21 (centres unmarked) [Compound 106] | 277
69 | Cn1nc(OCC2CCOCC2)c2ccc(NC(=O)c3ncccc3N)cc21 [Compound 117] | 87.7
70 | Cn1nc(OCC2CCOCC2)c2ccc(NC(=O)c3ncccc3O)cc21 [Compound 118] | 36.8
71 | Cn1nc(OC2CC3CCC2O3)c2ccc(Nc3n[nH]c4cccnc34)cc21 (centres unmarked) [Compound 37] | 306
72 | Cn1nc(OCC2CCOCC2)c2ncc(NC(=O)c3ccccn3)cc21 [Compound 57] | 255
73 | Cn1nc(OCCN2CCOCC2)c2ccc(NC(=O)c3ncccc3O)cc21 [Compound 78] | 255
74 | Cn1nc(OCC(F)(F)F)c2ccc(Nc3n[nH]c4cccnc34)cc21 [Compound 13] | 175
